The values below come from patent publication US20240018158A1, “BRM TARGETING COMPOUNDS AND ASSOCIATED METHODS OF USE” (Prelude Therapeutics Incorporated, priority 2020, published 2024).

Structures are written as SMILES.

The target of test [1] is bromodomain of SMARCA2 protein (Homo sapiens (Human), UniProt P40337+P51531). Briefly: SMARCA2 bromodomain ternary binding TR-FRET assay (with VCB). As to conditions: with saturating VCB (5 μM); read-out: IC50 (SM 2_T) ternary binding potency in SMARCA2 FRET assay. An excerpt:
Recombinant bromodomain of SMARCA2 protein was purchased from Active Motif (Catalog #: 31449). VHL/ElonginB/ElonginC (VCB)N-terminal his6-tagged VHL (“his6” disclosed as SEQ ID NO: 4) (uniprot accession number P40337; M54-D213; […] […] […] (SEQ ID NO: 1)), Elongin B (Q15370; M1-K104; […] […] (SEQ ID NO: 2)), Elongin C (Q15369; M17-C112; […] […] (SEQ ID NO: 3)) complex were co-expressed and the complex was purified by Ni-affinity, TEV protease was then used to remove his6-tagged (SEQ ID NO: 4), and the complex was further purified by size-exclusion chromatography before use.
The inhibitory activity of compounds was evaluated in vitro using TR-FRET assay with white 384-well low volume microplate (PerkinElmer ProxiPlate Plus), in which the compound competes the same binding site with the ligand, and thus lead to dose-dependent TR-FRET signal reduction. The cooperativity of the compounds for ternary complex formation with E3 ligase was evaluated in the absence or presence of saturating concentrations of VCB. Testing compounds were dissolved in DMSO at […] and tested in 9-dose IC50. The assay mixture was prepared by mixing SMARCA2 (10 nM final), biotinylated probe (25 nM final), and assay buffer or VCB (5 μM) in 1×AlphaLISA Epigenetics Buffer (PerkinElmer AL008F) with 1 mM TCEP. The compounds in DMSO were added to each well in 3-fold serial dilution by dispenser (TECAN D300E) and incubate for 20 minutes at room temperature before addition of detection reagents, Lance Eu W1024 anti-6×His (0.6 nM final, PerkinElmer AD0110) and Streptavidin Surelight APC (6 nM final, PerkinElmer CR130-100). The plate was then sealed and further incubated at 4° C. overnight in dark, and then was read by Envision multimode plate reader (PerkinElmer, 2102-0010). The ratio of florescence signal at 665/620 was used in data analysis. Percentage inhibition was calculated by % inhibition=100×(FDMSO-F)/(FDMSO-FPC), in which FDMSO is DMSO control, and FPC is positive control. IC50 values were determined from dose response curve by fitting the percent inhibition against compound concentration using GraphPad Prism software.

For a further test, the target named is SMARCA2 (Homo sapiens (Human), UniProt P51531). Briefly: In Cell Western SMARCA2 degradation in NCIH520 cells. The format is cell-based. As to conditions: for DC50: H520 cells, overnight, read-out: DC50 (SM2_H520) SMARCA2 degradation potency; for Dmax: NCI-H520, overnight, read-out: Dmax % (SM2_H520) maximum SMARCA2 degradation within the concentrations tested. The protocol: (§1) Compound titration and cell culture: Compounds were dissolved in DMSO to make 10 mM stock and 3-fold series dilutions were further conducted keeping the highest concentration 10 μM. NCIH1693 and NCIH520 cells were maintained in PRMI 1640 medium (Corning Cellgro, Catalog #:10-040-CV) supplemented with 10% v/v FBS (GE Healthcare, Catalog #: SH30910.03) by splitting 1:3 twice a week.
(§2) To determine SMACRA2 and SMARCA4 protein degradation DC50 values in NCIH1693 and NCIH520 cells by In Cell Western (ICW) analysis. Cells were trypsinized and 30 thousand cells/well were seeded into 384-well plates and were allowed to grow for 5 hours at 37° C. Eight-point, 3-fold serial dilutions of compounds from 10 mM stocks were added to the cells (using digital Dispenser D300-Tecan, keeping highest concentration 10 μM and normalizing with DMSO at the highest dispensed volume). Plates were incubated at 37° C. for overnight (maximum 18 hours). Cells incubated with DMSO was used as a vehicle control.
(§3) To perform In Cell Western, medium was removed from all the wells leaving cells attached to the surface. After removing the medium, cells were fixed within the plates with 40 μL of 4% formaldehyde by incubating at room temperature for 30 minutes, and then permeabilized with wash buffer (1×PBS with 0.1% Triton X-100) by washing the plate 5 times with 50 μL/well. Before labeling with primary antibodies, cells were blocked with 30 μL/well of blocking buffer (Licor Odyssey blocking buffer PBS #927-40000) for 30 minutes at room temperature. To measure SMARCA2 or SMARCA4 proteins, cells were labeled with 20 μL/well of anti SMARCA2 or SMACRA4 antibodies (Cell Signaling BRM #11966S 1:1000, Cell Signaling BRG #49360S 1:1000) diluted in Li-Cor Odyssey blocking buffer-PBS #927-40000, followed by overnight incubation at 4° C.
(§4) The next day, plates were washed 5×5 minutes with 50 μL/well of washing buffer to remove all the excess primary antibody and then 20 μL from a mixture of secondary antibody and fluorescent DNA specific dye (Goat anti rabbit 1:500 IRDye-800CW #92632211, and DRAQ5™ 1:2000-#ab108410) was added to each well. Plates were incubated for 1 hour at room temperature with gentle rocking. Cells were washed 5 times with 50 μL/well wash buffer, followed by one last wash with DI water, followed by 10 mins drying at 37° C. oven before scanning. Plates were scanned using Li-Cor Odyssey CLx imaging system to acquire integrated intensities at 700 nm and 800 nm. SMARCA signals were normalized to total cell count and then these normalized values were used to calculate the percent degradation relative to DMSO control and maximum inhibition. DC50s were calculated by using the GraphPad Prism4 program based on sigmoidal dose response equation ([Inhibitor] vs. normalized response−Variable slope).

In another test the target is SMARCA4 (Homo sapiens (Human), UniProt P51532). Briefly: In Cell Western SMARCA4 degradation in NCIH520 cells. To be noted: for DC50: H520 cells, overnight, read-out: DC50 (SM4_H520) SMARCA4 degradation potency; for Dmax: NCI-H520, overnight, read-out: Dmax % (SM4_H520) maximum SMARCA4 degradation within the concentrations tested. The format is cell-based. The protocol: as §1, §2, §3, §4

For the next test, the system named is NCIH1693 cells. Kind of test: Cell proliferation assay (ATPlite) in NCIH1693 cells. The format is cell-based. To be noted: Homo sapiens, NCI-H1693, 96 h, day 4, read-out: IC50 (PRO_H1693) antiproliferation potency. The protocol: One thousand NCIH1693 or NCIH1703 cells per well were seeded in 96 well plate and incubated at 37° C. for 5 hrs. A series of three-fold dilution of compounds from 10 mM stock concentration were added to the cells by using digital Dispenser D300-Tecan, keeping highest concentration 10 μM and normalizing with DMSO at the highest dispensed volume). Cells incubated with DMSO was used as a vehicle control. After compound treatment plates were incubated at 37° C. for 4 days and cell viability was measured by measuring ATP content from the cell lysate using ATPlite Luminescence assay system (PerkinElmer Cat. no #6016941). Percentage of viable cells, relative to DMSO vehicle control and maximum inhibition, was calculated and plotted in Graphpad Prism ([Inhibitor] vs. normalized response−Variable slope) to determine cell proliferation IC50 values on day 4.

The subject of test [2] is SMARCA4 mutated cancer cells. To be noted: Vangamudi et al. Cancer Res 2015; cited from earlier work.

Chain of bromodomain of SMARCA2 protein (P51531 whole entry, looked up): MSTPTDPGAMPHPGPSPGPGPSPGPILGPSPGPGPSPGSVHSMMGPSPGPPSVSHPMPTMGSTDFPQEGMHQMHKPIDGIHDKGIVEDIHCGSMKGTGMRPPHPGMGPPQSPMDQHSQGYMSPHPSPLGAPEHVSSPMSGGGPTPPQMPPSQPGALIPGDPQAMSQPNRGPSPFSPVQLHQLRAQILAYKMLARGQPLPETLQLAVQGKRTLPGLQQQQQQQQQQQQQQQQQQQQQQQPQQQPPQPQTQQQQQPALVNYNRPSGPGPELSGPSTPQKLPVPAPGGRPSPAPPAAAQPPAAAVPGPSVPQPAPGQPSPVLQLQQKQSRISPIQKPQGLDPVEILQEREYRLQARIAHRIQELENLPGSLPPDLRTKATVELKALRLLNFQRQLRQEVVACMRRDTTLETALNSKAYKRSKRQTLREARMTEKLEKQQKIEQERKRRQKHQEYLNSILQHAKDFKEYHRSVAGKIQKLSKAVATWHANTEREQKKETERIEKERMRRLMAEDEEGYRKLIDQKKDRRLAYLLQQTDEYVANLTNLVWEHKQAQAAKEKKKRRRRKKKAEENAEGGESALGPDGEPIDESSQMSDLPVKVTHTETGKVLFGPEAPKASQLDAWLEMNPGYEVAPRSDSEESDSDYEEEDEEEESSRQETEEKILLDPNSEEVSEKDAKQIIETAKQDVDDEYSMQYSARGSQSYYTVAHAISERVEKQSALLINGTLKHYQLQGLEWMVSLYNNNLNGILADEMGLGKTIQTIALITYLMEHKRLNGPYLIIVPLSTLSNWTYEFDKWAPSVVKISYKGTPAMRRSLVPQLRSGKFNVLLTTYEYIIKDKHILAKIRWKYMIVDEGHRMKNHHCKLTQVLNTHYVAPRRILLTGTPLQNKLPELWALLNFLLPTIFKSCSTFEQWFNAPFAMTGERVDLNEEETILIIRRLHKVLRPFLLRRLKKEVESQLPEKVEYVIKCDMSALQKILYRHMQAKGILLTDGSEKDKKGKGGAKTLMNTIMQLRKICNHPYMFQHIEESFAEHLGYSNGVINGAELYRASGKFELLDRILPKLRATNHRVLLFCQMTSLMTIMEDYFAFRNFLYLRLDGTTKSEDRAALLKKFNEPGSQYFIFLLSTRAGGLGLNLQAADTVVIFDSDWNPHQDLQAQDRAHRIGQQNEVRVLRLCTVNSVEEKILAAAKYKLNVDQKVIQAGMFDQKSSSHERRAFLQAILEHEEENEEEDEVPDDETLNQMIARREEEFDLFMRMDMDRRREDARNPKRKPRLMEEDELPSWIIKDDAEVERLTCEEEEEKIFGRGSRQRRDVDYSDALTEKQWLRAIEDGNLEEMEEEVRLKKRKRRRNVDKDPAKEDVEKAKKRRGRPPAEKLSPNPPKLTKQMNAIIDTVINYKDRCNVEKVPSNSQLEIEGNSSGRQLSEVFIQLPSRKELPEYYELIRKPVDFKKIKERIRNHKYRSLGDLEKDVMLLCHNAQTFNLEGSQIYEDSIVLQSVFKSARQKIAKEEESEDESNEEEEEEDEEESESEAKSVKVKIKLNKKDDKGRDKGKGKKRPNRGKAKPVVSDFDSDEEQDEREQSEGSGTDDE
Chain of bromodomain of SMARCA2 protein (P40337 whole entry, looked up): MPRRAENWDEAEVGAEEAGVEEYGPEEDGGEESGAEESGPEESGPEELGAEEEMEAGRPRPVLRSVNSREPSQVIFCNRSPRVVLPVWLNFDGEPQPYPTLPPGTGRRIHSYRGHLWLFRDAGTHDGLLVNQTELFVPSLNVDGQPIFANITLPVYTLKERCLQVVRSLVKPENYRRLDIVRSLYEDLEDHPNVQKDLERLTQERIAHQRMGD
Chain of bromodomain of SMARCA2 protein (Q15370 whole entry partner, looked up): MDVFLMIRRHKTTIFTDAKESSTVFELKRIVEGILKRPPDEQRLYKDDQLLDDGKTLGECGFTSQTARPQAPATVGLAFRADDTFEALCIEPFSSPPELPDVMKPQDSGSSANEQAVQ
Chain of bromodomain of SMARCA2 protein (Q15369 whole entry partner, looked up): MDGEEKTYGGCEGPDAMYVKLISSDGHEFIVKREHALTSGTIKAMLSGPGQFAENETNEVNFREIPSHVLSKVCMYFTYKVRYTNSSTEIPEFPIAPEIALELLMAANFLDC
Chain of SMARCA2 (P51531 whole entry): as the sequence (P51531 whole entry, looked up) above
Chain of SMARCA4 (P51532 whole entry): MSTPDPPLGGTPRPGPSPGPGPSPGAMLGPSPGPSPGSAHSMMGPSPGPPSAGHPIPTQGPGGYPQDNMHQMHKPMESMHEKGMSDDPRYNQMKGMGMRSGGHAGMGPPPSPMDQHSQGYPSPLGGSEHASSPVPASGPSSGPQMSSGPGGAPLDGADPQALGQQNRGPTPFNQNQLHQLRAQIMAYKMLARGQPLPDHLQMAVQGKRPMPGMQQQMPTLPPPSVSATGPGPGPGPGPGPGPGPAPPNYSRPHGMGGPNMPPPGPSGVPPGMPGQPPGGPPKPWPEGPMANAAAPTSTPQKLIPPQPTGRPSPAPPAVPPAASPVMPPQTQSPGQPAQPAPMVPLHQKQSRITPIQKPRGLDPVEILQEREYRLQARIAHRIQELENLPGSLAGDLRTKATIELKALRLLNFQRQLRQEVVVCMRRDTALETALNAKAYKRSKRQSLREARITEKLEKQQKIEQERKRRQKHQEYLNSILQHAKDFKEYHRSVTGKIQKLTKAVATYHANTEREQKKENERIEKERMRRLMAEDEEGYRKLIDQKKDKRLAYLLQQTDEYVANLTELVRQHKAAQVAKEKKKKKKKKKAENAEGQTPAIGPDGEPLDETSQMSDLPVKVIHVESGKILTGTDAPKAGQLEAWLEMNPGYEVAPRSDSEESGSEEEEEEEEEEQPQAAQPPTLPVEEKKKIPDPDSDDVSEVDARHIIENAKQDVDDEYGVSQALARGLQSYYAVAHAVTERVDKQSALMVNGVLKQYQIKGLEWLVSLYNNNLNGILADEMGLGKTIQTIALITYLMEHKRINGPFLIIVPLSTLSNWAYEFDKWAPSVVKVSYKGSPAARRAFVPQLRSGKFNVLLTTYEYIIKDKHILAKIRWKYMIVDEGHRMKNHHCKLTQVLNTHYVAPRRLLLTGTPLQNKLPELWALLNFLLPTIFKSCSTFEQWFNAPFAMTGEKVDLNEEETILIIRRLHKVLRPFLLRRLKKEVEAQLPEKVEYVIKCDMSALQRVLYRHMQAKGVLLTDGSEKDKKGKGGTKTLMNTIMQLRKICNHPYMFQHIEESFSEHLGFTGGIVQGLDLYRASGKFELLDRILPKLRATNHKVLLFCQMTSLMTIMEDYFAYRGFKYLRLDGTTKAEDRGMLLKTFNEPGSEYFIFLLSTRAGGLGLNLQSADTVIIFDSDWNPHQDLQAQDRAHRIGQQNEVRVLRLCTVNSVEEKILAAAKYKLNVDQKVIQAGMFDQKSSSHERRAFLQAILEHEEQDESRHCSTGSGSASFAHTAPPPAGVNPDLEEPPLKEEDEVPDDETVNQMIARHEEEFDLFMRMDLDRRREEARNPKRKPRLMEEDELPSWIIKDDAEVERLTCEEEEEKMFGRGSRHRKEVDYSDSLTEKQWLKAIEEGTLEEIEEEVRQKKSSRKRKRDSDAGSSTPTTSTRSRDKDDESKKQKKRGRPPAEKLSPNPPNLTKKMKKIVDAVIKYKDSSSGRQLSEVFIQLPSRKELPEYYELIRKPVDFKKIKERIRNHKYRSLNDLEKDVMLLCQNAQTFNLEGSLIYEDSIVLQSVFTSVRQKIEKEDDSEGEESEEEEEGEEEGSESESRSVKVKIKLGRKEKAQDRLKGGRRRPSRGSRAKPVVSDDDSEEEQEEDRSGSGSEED

As to `Cc1ncsc1-c1ccc([C@H](C)NC(=O)[C@@H]2C[C@@H](O)CN2C(=O)[C@@H](NC(=O)CN2CCN3c4cc(-c5ccccc5O)nnc4NCC3C2)C(C)(C)C)cc1` (single isomer, unassigned) [Example 1a], the IC50 (in test [1]; in the test with NCIH1693 cells) was 0.1 to 1 µM throughout. Also, the DC50 at SMARCA2 and on SMARCA4 was 0.1 to 1 µM each time. In addition, the Dmax on SMARCA2 and at SMARCA4 was more than 75% in each case.
`Cc1ncsc1-c1ccc([C@H](C)NC(=O)[C@@H]2C[C@@H](O)CN2C(=O)C(c2cc(OCCN3CCC(CN4CCN5c6cc(-c7ccccc7O)nnc6NCC5C4)CC3)no2)C(C)C)cc1` (stereo in doubt) [Example 5, (2S,4R)-4-hydroxy-1-((2S)-2-(3-(2-(4-((2-(2-hydroxyphenyl)-5,6,6a,7,9,10-hexahydro-8H-pyrazino[1′,2′:4,5]pyrazino[2,3-c]pyridazin-8-yl)methyl)piperidin-1-yl)ethoxy)isoxazol-5-yl)-3-methylbutanoyl)-N-((S)-1-(4-(4-methylthiazol-5-yl)phenyl)ethyl)pyrrolidine-2-carboxamide]: in test [1], the IC50 is less than 0.1 µM. The half-maximal degradation concentration (DC50) on SMARCA2 and on SMARCA4 was less than 0.1 µM each time. Besides, the Dmax at SMARCA2 and on SMARCA4 was more than 75% in each case.
Regarding `Cc1ncsc1-c1ccc([C@H](C)NC(=O)[C@@H]2C[C@@H](O)CN2C(=O)[C@@H](NC(=O)CN2CCC(CN3CCN4c5cc(-c6ccccc6O)nnc5NCC4C3)CC2)C(C)(C)C)cc1` (stereo partly drawn) [Example 3, (2S,4R)-4-hydroxy-1-((2S)-2-(2-(4-((2-(2-hydroxyphenyl)-5,6,6a,7,9,10-hexahydro-8H-pyrazino[1′,2′:4,5]pyrazino[2,3-c]pyridazin-8-yl)methyl)piperidin-1-yl)acetamido)-3,3-dimethylbutanoyl)-N-((S)-1-(4-(4-methylthiazol-5-yl)phenyl)ethyl)pyrrolidine-2-carboxamide], the IC50 in test [1] was less than 0.1 µM. Besides, the half-maximal degradation concentration (DC50) at SMARCA2 is less than 0.1 µM; at SMARCA4, 0.1 to 1 µM. The Dmax on SMARCA2 and on SMARCA4 was more than 75% each time.
Consider `Cc1ncsc1-c1ccc([C@H](C)NC(=O)[C@@H]2C[C@@H](O)CN2C(=O)[C@@H](c2cc(OCCN3CCN4c5cc(-c6ccccc6O)nnc5NCC4C3)no2)C(C)C)cc1` (stereo partly drawn) [Example 4, (2S,4R)-4-hydroxy-1-((2R)-2-(3-(2-(2-(2-hydroxyphenyl)-5,6,6a,7,9,10-hexahydro-8H-pyrazino[1′,2′:4,5]pyrazino[2,3-c]pyridazin-8-yl)ethoxy)isoxazol-5-yl)-3-methylbutanoyl)-N-((S)-1-(4-(4-methyl-1λ^3,3λ^2-thiazol-5-yl)phenyl)ethyl)pyrrolidine-2-carboxamide], for which the IC50 (in test [1]; in the test on NCIH1693 cells) was less than 0.1 µM throughout. Moreover, the half-maximal degradation concentration (DC50) on SMARCA2 was less than 0.1 µM; on SMARCA4 it was 0.1 to 1 µM. The Dmax on SMARCA2 and on SMARCA4 was more than 75% in each case.
Consider `O=C(/C=C/N1C[C@H]2C[C@@H]1CN2c1ccccn1)c1ccccc1O` [PFI-3], for which the “effects on cell proliferation inhibition” value in test [2] is listed as “none to minor effects”.

The term DC50 denotes the midpoint of the concentration-degradation curve.
